Measurements: US20150366788A1, “[…] EXTRACTS AND METHODS OF USE” (AVON PRODUCTS, INC, priority 2013, published 2015)

Test system: dorsal forearm skin of healthy female Caucasian subjects
Assay: In vivo biopsy (forearm patch, histology endpoints)
Design: species or system human
Conditions: 0.05% active (positive control), semi-occlusion patch, 3 weeks
Method: Healthy female Caucasian subjects aged 30-65, with skin type II or III and mild to moderate photo damage, were treated on the dorsal forearm for 3 weeks (3 consecutive rounds of 5×24 hour) under semi-occlusion patches. Test articles including active ingredients, vehicle controls, and retinol were applied in a randomized allocation on 6 sites on each forearm. The application dose was 2 mg/cm^2. After 3 week treatment, a 2 mm punch biopsy was obtained from each treatment site and fixed in 10% buffered formalin. Tissue samples then embedded in paraffin, sectioned (5 μm thickness), and stained for skin markers after re-hydration. […] Retinol at a active concentration of 0.05% was used a positive control. Retinol use at a 0.05% active concentration in the semi-occlusion patch vehicle formulation yielded a visual score of approximately 0.56 out of a 4 point scale in HE staining (measuring hematoxylin and eosin staining, an indication of viable epidermal thickness and health) with 63.6% of the subjects showing an improvement; a visual score of 0.6 out of a 4 point scale in M-TC staining (Masson's trichrome staining, assessing total mature fiber-forming collagen in the dermis—mainly Collagen I, […] and Collagen V) with 51.6% of the subjects showing an improvement; a visual score of 0.52 out of a 4 point scale for pro-Col (measuring new synthesis of Collagen I by skin fibroblasts in the dermis) with 51.6% of the subjects showing an improvement; and a visual score of 0.57 out of a 4 point scale for HA (measuring level of hyaluronic acid in both dermis and epidermis) with 50% of the subjects showing an improvement.

**Q.** With `CC1=C(/C=C/C(C)=C/C=C/C(C)=C/CO)C(C)(C)CCC1` [Retinol] as the compound, how does the “subjects showing an improvement, HA” value read?
**A.** Its value is 50%.

**Q.** And the “subjects showing an improvement, HE staining” value?
**A.** The value was 63.6%.

**Q.** What about the “subjects showing an improvement, M-TC staining” value of the same compound?
**A.** The value was 51.6%.

**Q.** What about the “subjects showing an improvement, pro-Col” value of the same compound?
**A.** Its value is 51.6%.

**Q.** And the “visual score HA (hyaluronic acid in dermis and epidermis)” value (out of a 4 point scale)?
**A.** Its value is 0.57.

**Q.** And the “visual score HE staining (viable epidermal thickness and health)” value (out of a 4 point scale)?
**A.** Its value is “approximately 0.56”.

**Q.** And the “visual score M-TC staining (total mature fiber-forming collagen in dermis)” value (out of a 4 point scale)?
**A.** Its value is 0.6.

**Q.** And the “visual score pro-Col (new synthesis of Collagen I)” value (out of a 4 point scale)?
**A.** The value was 0.52.
